Results on 23 compounds are retold here after ChEMBL document CHEMBL2390824, “Carbonic anhydrase inhibitors. Benzenesulfonamides incorporating cyanoacrylamide moieties strongly inhibit Saccharomyces cerevisiae β-carbonic anhydrase” (Bioorg Med Chem Lett, 2013).

The nature of assay [1]: Selectivity ratio of Ki for Sachcharomyces cerevisiae beta carbonic anhydrase to Ki for human carbonic anhydrase-1.
Assay [2] can be described thus: Selectivity ratio of Ki for Sachcharomyces cerevisiae beta carbonic anhydrase to Ki for human carbonic anhydrase-2.
The nature of assay [3]: Inhibition of Sachcharomyces cerevisiae beta carbonic anhydrase after 15 mins by stopped-flow CO2 hydrase assay. More on the design: species or system Saccharomyces cerevisiae.
Assay [4] relates to Saccharomyces cerevisiae. The experiment in a line: Antifungal activity against wild type Saccharomyces cerevisiae BY4742 assessed as growth inhibition after 48 hrs by microplate spectrophotometric analysis. Particulars: BY4742, 48 h, read-out: CC50. Type of assay: functional.

In the case of `COc1cc(/C=C(\C#N)C(=O)Nc2ccc(S(N)(=O)=O)cc2)cc(OC)c1OC`, the Ratio Ki in assay [1] amounted to 5.17; in assay [2], 1.05. In assay [3], affinity was put at a Ki of 7.1 nM.

Turning to `N#C/C(=C\c1ccc(O)cc1)C(=O)Nc1ccc(S(N)(=O)=O)cc1`, in assay [4], the Growth inhibition IC50 amounted to 6540 nM. The figures for the Ratio Ki in assay [1] and in assay [2] were 23.6 and 13.5, respectively. Moreover, in assay [3], the Ki (in general, the dissociation constant of the complex between target and ligand, obtained from inhibition or displacement) was found to be 2.5 nM.

With `COc1cc(/C=C(\C#N)C(=O)Nc2ccc(S(N)(=O)=O)cc2)ccc1O`, the Ratio Ki in assay [1] turned out to be 5.87; in assay [2], 1.07. The affinity in assay [3] corresponds to a Ki of 5.6 nM.

As to `N#C/C(=C\c1ccc2c(c1)OCO2)C(=O)Nc1ccc(S(N)(=O)=O)cc1`, the results for the Ratio Ki in assay [1] and in assay [2] were 3.29 and 1.9, respectively. In addition, the affinity in assay [3] corresponds to a Ki of 7.5 nM.

On to `N#C/C(C(=O)Nc1ccc(S(N)(=O)=O)cc1)=C(\S)Nc1ccccc1`, for which the Ratio Ki in assay [1] is 1.47; in assay [2], 0.14. In assay [3], the affinity, expressed as Ki, was 45.8 nM.

As to `CC(=O)Nc1nnc(S(N)(=O)=O)s1` [ACETAZOLAMIDE], the Ratio Ki in assay [1] stood at 3.02; in assay [2], 0.14. The same compound showed a Ki in assay [3] of 82.6 nM.

Consider `N#C/C(=C\c1ccco1)C(=O)Nc1ccc(S(N)(=O)=O)cc1`, for which the results for the Ratio Ki in assay [1] and in assay [2] were 0.8 and 0.72, respectively. Further, the Ki in assay [3] worked out at 7.6 nM.

Consider `COc1ccc(/C=C(\C#N)C(=O)Nc2ccc(S(N)(=O)=O)cc2)cc1OC`, for which the Ratio Ki came to 4.34 in assay [1] and 2.58 in assay [2]. The compound also had a Ki in assay [3] of 7.2 nM.

`COc1ccc(/C=C(\C#N)C(=O)Nc2ccc(S(N)(=O)=O)cc2)cc1`: in assay [4], the Growth inhibition IC50 came out at 1140 nM. Besides, the Ratio Ki in assay [1] worked out at 43; in assay [2] it was 9.78. The affinity in assay [3] corresponds to a Ki of 0.92 nM.

For the compound `N#C/C(=C\c1ccc([N+](=O)[O-])cc1)C(=O)Nc1ccc(S(N)(=O)=O)cc1`, the Ratio Ki was 2.15 in assay [1] and 0.29 in assay [2]. In addition, in assay [3], the inhibition constant Ki amounted to 18.6 nM.

Take `N#C/C(=C\C=C\c1ccccc1)C(=O)Nc1ccc(S(N)(=O)=O)cc1`: the values for the Ratio Ki in assay [1] and in assay [2] were 3.16 and 5.3, respectively. Further, in assay [3], the Ki came out at 5.9 nM.

For the compound `N#C/C(=C\c1ccccc1Cl)C(=O)Nc1ccc(S(N)(=O)=O)cc1`, the Ratio Ki in assay [1] was 4.91; in assay [2], 7.26. This compound also had an inhibition constant (Ki) in assay [3] of 8.4 nM.

Regarding `N#C/C(=C\c1ccc(Cl)cc1Cl)C(=O)Nc1ccc(S(N)(=O)=O)cc1`, the Ratio Ki in assay [1] was determined as 5.17; in assay [2] it was 3.61. Moreover, the affinity in assay [3], expressed as Ki, was 9.1 nM.

`N#C/C(=N\Nc1ccccc1)C(=O)Nc1ccc(S(N)(=O)=O)cc1`: the Ratio Ki in assay [1] was determined as 5.23; in assay [2], 1.3. For the same compound, affinity in assay [3] was put at a Ki of 6.5 nM.

For the compound `CC(=O)C1=NN(c2ccccc2)/C(=C(\C#N)C(=O)Nc2ccc(S(N)(=O)=O)cc2)S1`, the values for the Ratio Ki in assay [1] and in assay [2] were 2.02 and 0.13, respectively. In assay [3], this compound registered a Ki of 57.3 nM.

With `N=c1oc2ccccc2cc1C(=O)Nc1ccc(S(N)(=O)=O)cc1`, the Ratio Ki in assay [1] is 5.67; in assay [2], 1.88. Moreover, affinity in assay [3] was put at a Ki of 5.8 nM.

Turning to `CN(C)c1ccc(/C=C(\C#N)C(=O)Nc2ccc(S(N)(=O)=O)cc2)cc1`, the Growth inhibition IC50 in assay [4] came out at 6220 nM. Also, the Ratio Ki in assay [1] was determined as 15.8; in assay [2] it was 6.46. In assay [3], the Ki turned out to be 3 nM.

As to `N#C/C(=C\c1ccc(O)c(O)c1)C(=O)Nc1ccc(S(N)(=O)=O)cc1`, the Growth inhibition IC50 in assay [4] was 890 nM. In addition, the Ratio Ki was 69.9 in assay [1] and 5.6 in assay [2]. Further, the Ki in assay [3] came out at 0.75 nM.

As for `COc1cc(OC)c(/C=C(\C#N)C(=O)Nc2ccc(S(N)(=O)=O)cc2)c(OC)c1`, the Growth inhibition IC50 in assay [4] turned out to be 730 nM. Besides, the Ratio Ki stood at 37.6 in assay [1] and 9.85 in assay [2]. In assay [3], this compound gave a Ki of 0.68 nM.

For the compound `N#CCC(=O)Nc1ccc(S(N)(=O)=O)cc1`, the Ratio Ki amounted to 6.25 in assay [1] and 0.7 in assay [2]. Moreover, the inhibition constant Ki in assay [3] stood at 8.7 nM.

For `COc1ccccc1/C=C(\C#N)C(=O)Nc1ccc(S(N)(=O)=O)cc1`, the Ratio Ki in assay [1] came out at 1.02; in assay [2], 0.1. In assay [3], this compound returned a Ki of 69.5 nM.

For `N#C/C(=C\c1cccs1)C(=O)Nc1ccc(S(N)(=O)=O)cc1`, the figures for the Ratio Ki in assay [1] and in assay [2] were 1.6 and 0.81, respectively. Besides, the affinity in assay [3], expressed as Ki, was 3.3 nM.

Regarding `COc1cc(OC)c(OC)cc1/C=C(\C#N)C(=O)Nc1ccc(S(N)(=O)=O)cc1`, the figures for the Ratio Ki in assay [1] and in assay [2] were 4.93 and 4.44, respectively. This compound displayed a Ki in assay [3] of 8.6 nM.
